Test results: patent US8124629B2, “Naphthylacetic acids” (Hoffmann-La Roche Inc., priority 2008, dated 2012)

Target: T1, human CRTH2 (Homo sapiens, UniProt Q9Y5Y4)
T1 sequence (Q9Y5Y4 1-395): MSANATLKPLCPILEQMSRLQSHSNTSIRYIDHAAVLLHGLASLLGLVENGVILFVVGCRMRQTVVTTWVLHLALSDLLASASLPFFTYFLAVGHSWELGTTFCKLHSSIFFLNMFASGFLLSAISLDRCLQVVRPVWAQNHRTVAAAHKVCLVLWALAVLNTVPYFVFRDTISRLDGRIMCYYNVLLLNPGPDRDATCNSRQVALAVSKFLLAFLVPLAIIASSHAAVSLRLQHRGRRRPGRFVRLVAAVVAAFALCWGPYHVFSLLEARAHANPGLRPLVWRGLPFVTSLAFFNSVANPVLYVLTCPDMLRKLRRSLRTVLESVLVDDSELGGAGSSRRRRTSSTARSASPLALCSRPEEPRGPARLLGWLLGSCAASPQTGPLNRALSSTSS
Experiment: Human CRTH2 Receptor Binding Assay (whole cell, [3H]ramatroban)
Set-up: expressed in transfected cells; host or cells: CHO-K1
Conditions: CHO-K1 cells expressing human CRTH2 and G-alpha16; 20 nM [3H]ramatroban; 1 hour, room temperature
Excerpt: A whole cell receptor binding assay using [^3H]ramatroban as the competing radioactive ligand was employed to evaluate the compound binding activity to human CRTH2. The radioactive ligand [^3H]ramatroban was synthesized according to Sugimoto et. al. (Eur. J. Pharmacol. 524, 30-37, 2005) to a specific activity of 42 Ci/mmol.
A cell line stably expressing human CRTH2 was established by transfecting CHO-K1 cells with two mammalian expression vectors that harbored human CRTH2 and G-alpha16 cDNAs, respectively, using FuGene® 6 transfection reagent (from Roche). Stable clones expressing CRTH2 were selected by staining each clone with BM16 (BD Pharmingen™ from BD Biosciences, a division of Becton, Dickinson and Company), which is a rat monoclonal antibody to human CRTH2. The cells were maintained as monolayer cultures in Ham's F-12 medium containing 10% fetal bovine serum, 100 units/mL penicillin, 100 μg/mL streptomycin, 2 mM glutamine, 0.5 mg/mL G418 (geneticin) for CRTH2, and 0.2 mg/mL hygromycin-B (for G-alpha 16). For whole cell receptor binding assay, the monolayer cells were rinsed once with PBS (phosphate buffered saline), dissociated using ethylenediaminetetraacetate (Versene™ EDTA from Lonza Inc.), and suspended in PBS containing 10 mM MgCl2 and 0.06% BSA (bovine serum albumin) at 1.5×10^6 cells/mL.
The binding reactions (0.2 mL) were performed in 96-well plates at room temperature in PBS containing 1.5×10^5 cells, 10 mM MgCl2, 0.06% BSA, 20 nM [^3H]ramatroban, and test compound at various concentrations. After 1 hour of binding reactions, the cells were harvested on GF™/B filter microplates (microtiter plates with embedded glass fiber from Perkin Elmer, Inc.) and washed 5 times with PBS using a Filtermate™ Harvester (a cell harvester that harvests and washes cells from microplates from PerkinElmer, Inc.). The radioactivities bound to the cells were determined using a microplate scintillation counter (TopCount® NXT, from PerkinElmer, Inc.) after adding 50 μL of Microscint™ 20 scintillation fluid (from PerkinElmer, Inc.) to each well of the filter plates. The radioactivity from non-specific binding was determined by replacing compound with 10 μM of 15(R)-15-methyl PGD2 (from Cayman Chemical Company) in the reaction mixtures. The radioactivity bound to the cells in the absence of compound (total binding) was determined by replacing compound with 0.25% of DMSO (dimethyl sulfoxide) in the reaction mixture. Specific binding data were obtained by subtracting the radioactivity of non-specific binding from each binding data.
The IC50 value is defined as the concentration of the tested compound that is required for 50% inhibition of total specific binding. In order to calculate the IC50 value, the percent inhibition data were determined for 7 concentrations for each compound. The percent inhibition for a compound at each concentration was calculated according to the following formula, [1-(specific binding in the presence of compound)/(total specific binding)]×100. The IC50 value was then obtained by fitting the percent inhibition data to a sigmoidal dose-response (4 parameter logistic) model in the XLfit® software Excel add-in program [from ID Business Solutions Ltd., model 205, where F(x)=(A+(B−A)/(1+((C/×)^D)))].

| IC50 [nM] | SMILES |
| --- | --- |
| 2.3 | CCc1cc(C(=O)c2cc(CC(=O)O)cc3ccc(F)cc23)ccc1S(C)(=O)=O [Example 2-19, [4-(3-Ethyl-4-methanesulfonyl-benzoyl)-6-fluoro-naphthalen-2-yl]-acetic acid] |
| 17.9 | CCS(=O)(=O)c1ccc(C(=O)c2cc(CC(=O)O)cc3ccc(F)cc23)c(C)c1 [Example 2-20, [4-(4-Ethanesulfonyl-2-methyl-benzoyl)-6-fluoro-naphthalen-2-yl]-acetic acid] |
| 3.8 | O=C(O)Cc1cc(C(=O)c2ccc(S(=O)(=O)N3CCCCC3)cc2)c2cc(F)ccc2c1 [Example 2-21, {6-Fluoro-4-[4-(piperidine-1-sulfonyl)-benzoyl]-naphthalen-2-yl}-acetic acid] |
| 2.5 | CCN(CC)S(=O)(=O)c1ccc(C(=O)c2cc(CC(=O)O)cc3ccc(F)cc23)cc1 [Example 2-22, [4-(4-Diethylsulfamoyl-benzoyl)-6-fluoro-naphthalen-2-yl]-acetic acid] |
| 3.7 | Cc1cc(S(=O)(=O)N2CCOCC2)ccc1C(=O)c1cc(CC(=O)O)cc2ccc(F)cc12 [Example 2-23, {6-Fluoro-4-[2-methyl-4-(morpholine-4-sulfonyl)-benzoyl]-naphthalen-2-yl}-acetic acid] |
| 6.9 | Cc1cc(S(=O)(=O)N(C)C)ccc1C(=O)c1cc(CC(=O)O)cc2ccc(F)cc12 [Example 2-24, [4-(4-Dimethylsulfamoyl-2-methyl-benzoyl)-6-fluoro-naphthalen-2-yl]-acetic acid] |
| 8.9 | CNS(=O)(=O)c1ccc(C(=O)c2cc(CC(=O)O)cc3ccc(F)cc23)c(C)c1 [Example 2-25, [6-Fluoro-4-(2-methyl-4-methylsulfamoyl-benzoyl)-naphthalen-2-yl]-acetic acid] |
| 7 | O=C(O)Cc1cc(C(=O)c2ccc(S(=O)(=O)N3CCN(c4ccccc4F)CC3)cc2)c2cc(F)ccc2c1 [Example 2-26, (6-Fluoro-4-{4-[4-(2-fluoro-phenyl)-piperazine-1-sulfonyl]-benzoyl}-naphthalen-2-yl)-acetic acid] |
| 6.4 | CS(=O)(=O)c1ccc(C(=O)c2cc(CC(=O)O)cc3ccc(Cl)cc23)cc1 [Example 2-27, [6-Chloro-4-(4-methanesulfonyl-benzoyl)-naphthalen-2-yl]-acetic acid] |
| 21.3 | Cc1ccc2cc(CC(=O)O)cc(C(=O)c3ccc(S(C)(=O)=O)cc3)c2c1 [Example 2-28, [4-(4-Methanesulfonyl-benzoyl)-6-methyl-naphthalen-2-yl]-acetic acid] |
| 103 | CS(=O)(=O)c1cc(C(=O)c2cc(CC(=O)O)cc3ccc(F)cc23)ccc1F [Example 2-31, [6-Fluoro-4-(4-fluoro-3-methanesulfonyl-benzoyl)-naphthalen-2-yl]-acetic acid] |
| 272 | CS(=O)(=O)c1ccc(C(=O)c2cc(CC(=O)O)cc3cc(C(F)(F)F)ccc23)cc1 [Example 2-32, [4-(4-Methanesulfonyl-benzoyl)-7-trifluoromethyl-naphthalen-2-yl]-acetic acid] |
| 8.3 | CCOC(=O)N1CCN(S(=O)(=O)c2ccc(C(=O)c3cc(CC(=O)O)cc4ccc(F)cc34)cc2)CC1 [Example 4-1, 4-[4-(3-Carboxymethyl-7-fluoro-naphthalene-1-carbonyl)-benzenesulfonyl]-piperazine-1-carboxylic acid ethyl ester] |
| 26.7 | CC(C)(C)OC(=O)N1CCN(S(=O)(=O)c2ccc(C(=O)c3cc(CC(=O)O)cc4ccc(F)cc34)cc2)CC1 [Example 4-2] |
| 2.1 | Cc1c(CC(=O)O)cc2ccc(F)cc2c1C(=O)c1ccc(S(C)(=O)=O)cc1 [Example 6-1, [6-fluoro-4-(4-methanesulfonyl-benzoyl)-3-methyl-naphthalen-2-yl]-acetic acid] |
| 3.7 | Cc1c(CC(=O)O)cc2ccc(Cl)cc2c1C(=O)c1ccc(S(C)(=O)=O)cc1 [Example 6-2, [6-Chloro-4-(4-methanesulfonyl-benzoyl)-3-methyl-naphthalen-2-yl]-acetic acid] |

| IC50 [nM] | SMILES |
| --- | --- |
| 2.4 | CCS(=O)(=O)c1ccc(C(=O)c2c(C)c(CC(=O)O)cc3ccc(F)cc23)cc1 [Example 6-3, [4-(4-Ethanesulfonyl-benzoyl)-6-fluoro-3-methyl-naphthalen-2-yl]-acetic acid] |
| 87.8 | Cc1ccc2cc(CC(=O)O)cc(Cc3ccc(S(C)(=O)=O)cc3)c2c1 [Example 8-1, [4-(4-Methanesulfonyl-benzyl)-6-methyl-naphthalen-2-yl]-acetic acid] |
| 15.3 | CS(=O)(=O)c1ccc(Cc2cc(CC(=O)O)cc3ccc(C(F)(F)F)cc23)cc1 [Example 8-2, [4-(4-Methanesulfonyl-benzyl)-6-trifluoromethyl-naphthalen-2-yl]-acetic acid] |
| 6.1 | CS(=O)(=O)c1ccc(Cc2cc(CC(=O)O)cc3ccc(F)cc23)cc1 [Example 8-4, [6-Fluoro-4-(4-methanesulfonyl-benzyl)-naphthalen-2-yl]-acetic acid] |
| 5.3 | Cc1cc(S(C)(=O)=O)ccc1Cc1cc(CC(=O)O)cc2ccc(F)cc12 [Example 8-5, [6-Fluoro-4-(4-methanesulfonyl-2-methyl-benzyl)-naphthalen-2-yl]-acetic acid] |
| 5.4 | CS(=O)(=O)c1ccc(Cc2cc(CC(=O)O)cc3ccc(F)cc23)cc1C(F)(F)F [Example 8-6, [6-Fluoro-4-(4-methanesulfonyl-3-trifluoromethyl-benzyl)-naphthalen-2-yl]-acetic acid] |
| 5.4 | CCS(=O)(=O)c1ccc(Cc2cc(CC(=O)O)cc3ccc(F)cc23)c(C)c1 [Example 8-7, [4-(4-Ethanesulfonyl-2-methyl-benzyl)-6-fluoro-naphthalen-2-yl]-acetic acid] |
| 6 | CN(C)S(=O)(=O)c1ccc(Cc2cc(CC(=O)O)cc3ccc(F)cc23)cc1 [Example 8-8, [4-(4-Dimethylsulfamoyl-benzyl)-6-fluoro-naphthalen-2-yl]-acetic acid] |
| 4.3 | CCS(=O)(=O)c1ccc(Cc2cc(CC(=O)O)cc3ccc(F)cc23)cc1 [Example 8-9, [4-(4-Ethanesulfonyl-benzyl)-6-fluoro-naphthalen-2-yl]-acetic acid] |
| 3.2 | CNS(=O)(=O)c1ccc(Cc2cc(CC(=O)O)cc3ccc(F)cc23)cc1 [Example 9-1, [6-Fluoro-4-(4-methylsulfamoyl-benzyl)-naphthalen-2-yl]-acetic acid] |
| 3.9 | Cc1c(CC(=O)O)cc2ccc(F)cc2c1Cc1ccc(S(C)(=O)=O)cc1 [Example 10-1, [6-Fluoro-4-(4-methanesulfonyl-benzyl)-3-methyl-naphthalen-2-yl]-acetic acid] |
| 54 | Cc1c(CC(=O)O)cc2ccc(F)cc2c1Cc1cccc(S(C)(=O)=O)c1 [Example 10-2, [6-Fluoro-4-(3-methanesulfonyl-benzyl)-3-methyl-naphthalen-2-yl]-acetic acid] |
| 3.2 | Cc1c(CC(=O)O)cc2ccc(F)cc2c1Cc1ccc(S(=O)(=O)c2ccccc2)cc1 [Example 10-3, [4-(4-Benzenesulfonyl-benzyl)-6-fluoro-3-methyl-naphthalen-2-yl]-acetic acid] |
| 24 | Cc1c(CC(=O)O)cc2ccc(F)cc2c1Cc1ccc(Br)cc1 [Example 10-4, [4-(4-Bromo-benzyl)-6-fluoro-3-methyl-naphthalen-2-yl]-acetic acid] |
| 12.4 | Cc1c(CC(=O)O)cc2ccc(F)cc2c1Cc1ccc(C#N)cc1 [Example 10-5, [4-(4-Cyano-benzyl)-6-fluoro-3-methyl-naphthalen-2-yl]-acetic acid] |
